Measured values reported in publication PMC10824666 (Nature Cancer, 2023).
Read-outs that look alike come from different tables or passages of the source. Each block holds one compound with its values, some of them ahead of it.

What was measured:
Assay in all cases: biochemical
Set-up in all cases: Eurofins DiscoverX kinase panel, competitive binding assay at 1 uM, percent of DMSO control
Conditions in all cases: competitive binding, percent of DMSO control
Fyn = Fyn (Homo sapiens, UniProt P06241)
How it was run: (§1)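 Competitive binding assay across a 96-kinase panel with KIF18A compounds at 1 µM; values given as percentage of control (POC), single experiment.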

DYRK1a = DYRK1a (Homo sapiens, UniProt Q13627)
How it was run: as §1

p38 γ = target: T1, p38 γ (Homo sapiens, UniProt P53778)
T1 construct: gene MAPK12
T1 sequence (P53778 1-367): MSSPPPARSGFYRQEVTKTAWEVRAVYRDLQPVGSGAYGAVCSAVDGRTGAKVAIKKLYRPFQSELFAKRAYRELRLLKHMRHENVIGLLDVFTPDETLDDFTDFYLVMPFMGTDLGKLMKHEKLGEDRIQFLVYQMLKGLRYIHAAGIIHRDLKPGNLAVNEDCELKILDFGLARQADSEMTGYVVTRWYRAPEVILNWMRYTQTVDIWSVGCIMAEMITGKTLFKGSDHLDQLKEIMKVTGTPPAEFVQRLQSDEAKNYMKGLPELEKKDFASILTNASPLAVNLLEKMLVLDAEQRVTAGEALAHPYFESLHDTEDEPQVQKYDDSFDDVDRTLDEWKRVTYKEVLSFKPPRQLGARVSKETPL
How it was run: as §1

Syk = Syk (Homo sapiens, UniProt P43405)
How it was run: as §1

CAMK4 = target: T2, CAMK4 (Homo sapiens, UniProt Q16566)
T2 sequence (Q16566 1-473): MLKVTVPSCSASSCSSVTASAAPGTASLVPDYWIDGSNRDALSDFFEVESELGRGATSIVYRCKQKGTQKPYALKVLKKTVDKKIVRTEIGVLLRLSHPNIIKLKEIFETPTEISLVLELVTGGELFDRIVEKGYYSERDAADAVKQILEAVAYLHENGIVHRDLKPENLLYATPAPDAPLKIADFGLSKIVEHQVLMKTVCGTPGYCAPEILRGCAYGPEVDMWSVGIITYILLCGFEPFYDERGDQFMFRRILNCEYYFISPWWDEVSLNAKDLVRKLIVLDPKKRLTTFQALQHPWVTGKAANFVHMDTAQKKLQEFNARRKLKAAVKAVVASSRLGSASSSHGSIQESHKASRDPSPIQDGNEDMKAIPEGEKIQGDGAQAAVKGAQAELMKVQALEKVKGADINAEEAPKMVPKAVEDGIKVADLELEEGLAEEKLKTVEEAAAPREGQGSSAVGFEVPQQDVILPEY
How it was run: as §1

CLK4 = CLK4 (Homo sapiens, UniProt Q9HAZ1)
How it was run: as §1

JAK2 = JAK2 (Homo sapiens, UniProt O60674)
How it was run: as §1

p38 α = target: T3, p38 α (Homo sapiens, UniProt Q16539)
T3 construct: gene MAPK14
How it was run: as §1

[1] = read-out: Kinome Profiling performed by Eurofins DiscoverX / AM-1882, 1.0 µM / POC
[2] = read-out: Kinome Profiling performed by Eurofins DiscoverX / AM-5308, 1.0 µM / POC
[3] = read-out: Kinome Profiling performed by Eurofins DiscoverX / AM-0277, 1.0 µM / POC

T3 sequence (Q16539 whole entry): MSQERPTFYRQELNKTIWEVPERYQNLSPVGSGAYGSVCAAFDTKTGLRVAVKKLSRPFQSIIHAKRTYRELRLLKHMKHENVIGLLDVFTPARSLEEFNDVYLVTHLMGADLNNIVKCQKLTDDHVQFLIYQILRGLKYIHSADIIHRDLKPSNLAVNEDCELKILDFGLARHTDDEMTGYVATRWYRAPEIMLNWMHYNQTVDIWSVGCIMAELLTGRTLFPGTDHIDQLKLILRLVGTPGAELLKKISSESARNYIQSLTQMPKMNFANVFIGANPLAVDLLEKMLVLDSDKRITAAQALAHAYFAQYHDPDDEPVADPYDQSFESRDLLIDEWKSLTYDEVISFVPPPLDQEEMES
JAK2, sequence (O60674 whole entry): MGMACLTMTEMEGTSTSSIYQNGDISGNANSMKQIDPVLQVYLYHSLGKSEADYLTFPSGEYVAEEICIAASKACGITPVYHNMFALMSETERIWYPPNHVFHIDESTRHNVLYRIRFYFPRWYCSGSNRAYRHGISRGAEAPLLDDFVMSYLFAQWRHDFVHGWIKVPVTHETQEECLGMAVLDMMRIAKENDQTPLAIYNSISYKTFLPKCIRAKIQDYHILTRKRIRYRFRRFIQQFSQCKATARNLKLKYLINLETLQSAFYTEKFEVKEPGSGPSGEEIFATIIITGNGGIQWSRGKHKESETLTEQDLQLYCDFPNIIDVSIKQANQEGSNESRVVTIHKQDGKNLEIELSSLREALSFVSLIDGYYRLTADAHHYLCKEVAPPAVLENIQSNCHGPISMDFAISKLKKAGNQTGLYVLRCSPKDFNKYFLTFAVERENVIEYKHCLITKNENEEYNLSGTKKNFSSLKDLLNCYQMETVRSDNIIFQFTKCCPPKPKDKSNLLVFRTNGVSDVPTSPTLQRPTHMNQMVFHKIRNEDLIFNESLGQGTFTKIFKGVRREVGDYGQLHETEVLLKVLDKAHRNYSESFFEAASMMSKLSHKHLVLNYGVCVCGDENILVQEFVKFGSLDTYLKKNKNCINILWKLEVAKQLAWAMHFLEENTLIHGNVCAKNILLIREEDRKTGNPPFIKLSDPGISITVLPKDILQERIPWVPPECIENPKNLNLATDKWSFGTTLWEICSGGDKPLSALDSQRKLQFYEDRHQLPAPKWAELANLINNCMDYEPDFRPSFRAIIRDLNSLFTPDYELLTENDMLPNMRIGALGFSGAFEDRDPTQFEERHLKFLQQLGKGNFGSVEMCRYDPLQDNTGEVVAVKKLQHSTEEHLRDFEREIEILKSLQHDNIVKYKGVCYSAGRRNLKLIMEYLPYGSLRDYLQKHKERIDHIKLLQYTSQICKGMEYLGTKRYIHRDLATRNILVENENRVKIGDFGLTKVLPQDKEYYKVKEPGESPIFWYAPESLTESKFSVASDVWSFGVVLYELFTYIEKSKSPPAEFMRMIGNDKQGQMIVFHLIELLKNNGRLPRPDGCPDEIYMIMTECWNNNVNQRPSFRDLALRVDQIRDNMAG
Fyn, sequence (P06241 whole entry): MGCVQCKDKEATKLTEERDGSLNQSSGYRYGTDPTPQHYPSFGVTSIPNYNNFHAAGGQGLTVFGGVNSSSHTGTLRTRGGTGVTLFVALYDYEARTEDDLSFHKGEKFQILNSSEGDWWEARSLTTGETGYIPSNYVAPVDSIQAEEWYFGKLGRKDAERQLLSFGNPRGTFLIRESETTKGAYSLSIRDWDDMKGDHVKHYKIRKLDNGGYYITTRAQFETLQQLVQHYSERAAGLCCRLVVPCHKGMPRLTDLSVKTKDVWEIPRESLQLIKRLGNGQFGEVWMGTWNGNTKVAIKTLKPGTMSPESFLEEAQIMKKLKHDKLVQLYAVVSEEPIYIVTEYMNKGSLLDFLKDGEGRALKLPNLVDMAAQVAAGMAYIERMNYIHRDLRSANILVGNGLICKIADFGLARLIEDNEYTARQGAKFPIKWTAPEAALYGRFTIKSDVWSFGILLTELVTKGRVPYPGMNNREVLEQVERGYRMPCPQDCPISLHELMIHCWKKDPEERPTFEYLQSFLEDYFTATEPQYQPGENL
CLK4, sequence (Q9HAZ1 whole entry): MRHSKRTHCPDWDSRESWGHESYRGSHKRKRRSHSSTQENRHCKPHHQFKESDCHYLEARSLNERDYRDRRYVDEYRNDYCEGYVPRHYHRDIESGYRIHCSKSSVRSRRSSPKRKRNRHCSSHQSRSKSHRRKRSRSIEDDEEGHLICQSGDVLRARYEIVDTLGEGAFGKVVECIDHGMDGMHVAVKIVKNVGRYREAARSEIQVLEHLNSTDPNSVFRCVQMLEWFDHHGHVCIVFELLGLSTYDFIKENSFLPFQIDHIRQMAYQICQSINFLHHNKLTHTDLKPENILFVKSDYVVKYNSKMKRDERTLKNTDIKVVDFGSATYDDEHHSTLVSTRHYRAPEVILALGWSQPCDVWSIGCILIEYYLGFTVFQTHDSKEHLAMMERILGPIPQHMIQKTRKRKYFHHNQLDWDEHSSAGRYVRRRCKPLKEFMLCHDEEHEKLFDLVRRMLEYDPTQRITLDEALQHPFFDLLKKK

remaining activity at 1 µM (Fyn; [1]): 85.5%
remaining activity at 1 µM (DYRK1a; [1]): 81%
remaining activity at 1 µM (p38 γ; [1]): 100%
remaining activity at 1 µM (Syk; [1]): 89.5%
remaining activity at 1 µM (CAMK4; [1]): 99%
remaining activity at 1 µM (CLK4; [1]): 100%
remaining activity at 1 µM (JAK2; [1]): 100%
remaining activity at 1 µM (p38 α; [1]): 100%
SMILES: CC(C)(C)NS(=O)(=O)c1cccc(NC(=O)c2ccc(S(=O)(=O)NC(C)(C)C)cc2N2CCC3(CC2)CC3)c1 [AM-1882]

remaining activity at 1 µM (Fyn; [2]): 92%
remaining activity at 1 µM (DYRK1a; [2]): 100%
remaining activity at 1 µM (p38 γ; [2]): 76.5%
remaining activity at 1 µM (Syk; [2]): 79.5%
remaining activity at 1 µM (CAMK4; [2]): 100%
remaining activity at 1 µM (CLK4; [2]): 100%
remaining activity at 1 µM (JAK2; [2]): 94.5%
remaining activity at 1 µM (p38 α; [2]): 89.5%
SMILES: C[C@@H]1CN(c2cccc(NC(=O)c3ccc(NS(=O)(=O)CCO)cc3N3CCC4(CC3)CC4)n2)CCO1 [AM-5308]

remaining activity at 1 µM (Fyn; [3]): 100%
remaining activity at 1 µM (DYRK1a; [3]): 100%
remaining activity at 1 µM (p38 γ; [3]): 100%
remaining activity at 1 µM (Syk; [3]): 100%
remaining activity at 1 µM (CAMK4; [3]): 81%
remaining activity at 1 µM (CLK4; [3]): 97%
remaining activity at 1 µM (JAK2; [3]): 100%
remaining activity at 1 µM (p38 α; [3]): 100%
SMILES: CC(C)(CO)Nc1ccc(C(=O)Nc2cccc(S(=O)(=O)C3CCCC3)c2)c(N2CCC3(CC2)CC3)n1 [AM-0277]
